# Starred links: 1 amine or outer side, 2 acyl side, 3 side chain; linkers in the order of their positions; H or OH if unused. Residues, ends and D or L forms follow the SMILES beside them. Suc = O=C(CCC(=O)[*:2])[*:1]
# Target: T1, PLL3 (Photorhabdus laumondii subsp. laumondii, UniProt Q7N8I7)
# Assay: Hemagglutination inhibition assay (PLL3 with erythrocytes of blood group O)
# Type: cell-based
# Details: PLL3 50 μM, blood group O erythrocytes; saccharide 100 to 0.1 mM
# Description: For the hemagglutination inhibition assay, the PLL3 was mixed with serially diluted saccharides (L-fucose, αMeFuc, D-galactose, D-glucose, and 3-O-methyl-D-glucose) dissolved in PBS buffer, and mixtures were incubated for 15 min at room temperature. Subsequently, erythrocytes of blood group O were added into the mixture with following incubation for 15 min. The final concentration was 50 μM for the PLL3 and 10% (v/v) for erythrocytes. Concentrations of L-fucose and αMeFuc ranged from 50 to 0.05 mM. Concentrations of D-galactose, D-glucose, and 3-O-methyl-D-glucose ranged from 100 to 0.1 mM. Each sample was observed under the optical microscope (Olympus IX81 with camera DP72; 200x magnification; SW CellSens Dimension, Olympus corporation, Tokyo, Japan).
# T1 sequence (Q7N8I7 entry or part of it): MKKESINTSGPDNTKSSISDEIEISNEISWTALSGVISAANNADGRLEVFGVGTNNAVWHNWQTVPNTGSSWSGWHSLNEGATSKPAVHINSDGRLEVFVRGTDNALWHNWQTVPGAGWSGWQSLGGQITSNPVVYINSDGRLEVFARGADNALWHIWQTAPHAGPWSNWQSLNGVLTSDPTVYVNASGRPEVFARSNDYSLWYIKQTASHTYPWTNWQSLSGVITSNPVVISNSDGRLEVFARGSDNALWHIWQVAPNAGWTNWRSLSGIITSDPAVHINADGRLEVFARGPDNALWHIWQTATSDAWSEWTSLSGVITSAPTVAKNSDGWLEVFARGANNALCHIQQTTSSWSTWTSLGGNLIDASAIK
row,Molecule,inhibition of hemagglutination
1,O=C[C@H](O)[C@@H](O)[C@@H](O)[C@H](O)CO [D-galactose],did not inhibit hemagglutination

# Target: T1, PLL3
# Assay: Glycan array screening with DyLight 488-labeled PLL3
# Type: binding
# Details: glycan array signal of DyLight 488-labeled PLL3 per immobilized glycan or bacterial polysaccharide
# From the text: Purified PLL3 protein was labeled with DyLight 488 NHS Ester (Thermo Scientific, Rockford, MI, USA) according to the manual instructions of the manufacturer. The unbound dye was removed from the solution using the Zeba Spin Desalting Column (Thermo scientific). The labeled lectin was used for glycan array screening using a glycan microarray chip (Semiotik, Moscow, Russia; chip format OSPS280715; slide number 10085636) containing over 600 mammalian and bacterial glycans (all in hexaplicates). The glycan microarray chip was incubated in 1.0 mL of PBS buffer supplemented with 0.1% (v/v) Tween 20 and placed in a humid chamber for 15 min (37 °C, 40 rpm). Then, the buffer was replaced by 0.5 mL PLL3 (200 μg mL^−1) diluted in PBS buffer with 0.1% Tween 20 and 1% (w/v) bovine serum albumin (Serva, Germany). After incubation (90 min, 37 °C, 40 rpm), the chip was washed by decreasing concentrations of PBS with 0.1% Tween 20, followed by multiple immersions in ultrapure water. Subsequently, the chip was dried by air blow. Fluorescence was read with a scanner InnoScan 1100 AL (Innopsys, Carbonne, France) with a 488 nm laser at 20 °C. The data were analyzed with the software Mapix 8.2.2 and an online glycan chip converter (Semiotik, https://rakitko.shinyapps.io/semiotik). The relative fluorescent response of PLL3 binding was calculated from hexaplicates of each glycan immobilized onto the chip. Only glycans with a response three or more times higher than trehalose and concurrently with a signal-to-noise ratio higher than two were considered as significant binders.
row,Molecule,Median
1,O=C[C@@H](O)[C@@H](O)[C@H](O)[C@H](O)COP(=O)(O)O [M6P],148
2,CC(=O)N[C@H]1[C@@H](OC[C@H](N)C(=O)O)O[C@H](CO)[C@H](O)[C@@H]1O [GalNAca1-OSer],208
3,NCC(O)C(O)C(O)C(O)CO (stereo not shown) [HOCH2(HOCH)4CH2NH2],293
4,CC(=O)N[C@H]1[C@H]([C@H](O)[C@H](O)CO)OC(O)(C(=O)O)C[C@@H]1O (stereo partly shown) [Sia],112
5,CC(=O)N[C@H]1[C@H]([C@H](O)[C@H](O)CO)OC(OC[C@H]2O[C@@H](O[C@H]3[C@H](O)[C@@H](NC(C)=O)C(O)O[C@@H]3CO)[C@H](O)[C@@H](O)[C@H]2O)(C(=O)O)C[C@@H]1O (stereo partly shown) [6'SLN],99
6,CC(=O)N[C@@H]1[C@@H](O)[C@H](O[C@@H]2O[C@H](CO)[C@@H](O)[C@H](O)[C@H]2NC(C)=O)[C@@H](CO)O[C@H]1NC(=O)C[C@H](N)C(=O)O [GlcNAcb1-4GlcNAcb-Asn],277
7,OC[C@H]1O[C@H](O[C@H]2[C@@H](O)[C@@H](CO)OC(O)[C@@H]2O)[C@H](O)[C@@H](O)[C@H]1O (stereo partly shown) [Bdi],134
8,CC(=O)N[C@@H]1C(O)C[C@](O[C@@H]2C(O)[C@H](O[C@@H]3C(CO)OC(NC(=O)CN)C(O)[C@H]3O)OC(CO)[C@@H]2O)(C(=O)O)OC1[C@H](O)[C@H](O)CO (stereo partly shown) [3'SL-Gly],101
9,CC(=O)N[C@H]1[C@H]([C@H](O)[C@H](O)CO)O[C@@](O[C@H](CO)[C@@H](O)[C@@H]2O[C@@](O[C@H](CO)[C@@H](O)[C@@H]3O[C@](O)(C(=O)O)C[C@H](O)[C@H]3NC(C)=O)(C(=O)O)C[C@H](O)[C@H]2NC(C)=O)(C(=O)O)C[C@@H]1O [(Sia)3],158
10,CC(=O)N[C@H]1[C@@H](O[C@H]2[C@@H](O)[C@@H](CO)OC(O)[C@@H]2O[C@@H]2O[C@@H](C)[C@@H](O)[C@@H](O)[C@@H]2O)O[C@H](CO)[C@H](O)[C@@H]1O (stereo partly shown) [Atri],167
11,CC(=O)N[C@@H]1[C@@H](O)[C@H](O[C@@H]2O[C@H](CO)[C@H](O)[C@H](O[C@H]3O[C@H](CO)[C@H](O)[C@H](O)[C@H]3NC(C)=O)[C@H]2O[C@@H]2O[C@@H](C)[C@@H](O)[C@@H](O)[C@@H]2O)[C@@H](CO)O[C@H]1O [Atype2],158
12,CC(=O)N[C@H]1[C@H](OCCCN)O[C@H](CO)[C@@H](O[C@@H]2O[C@H](CO)[C@H](O)[C@H](O)[C@H]2O)[C@@H]1O [Galb1-4GlcNAcb-sp8],184
13,NCCOCCOCCOCCOCCOCCOCC(=O)NCCOC1OC(COC2OC(COC3OC(CO)C(O)C3OC3OC(CO)C(O)C3O)C(OC3OC(CO)C(O)C3OC3OC(CO)C(O)C3O)C2O)C(O)C1O (stereo not shown),220
14,"COCC1OC(O)C(O)C(OC)C1O (stereo not shown) [3,6-Me2Glc]",74
15,CC(=O)N[C@H]1[C@H]([C@H](O)[C@H](O)CO)O[C@@](O[C@H]2[C@@H](O)[C@@H](CO)O[C@@H](O[C@H]3[C@H](O)[C@@H](NC(C)=O)C(O)O[C@@H]3CO)[C@@H]2O)(C(=O)O)C[C@@H]1O (stereo partly shown) [3'SLN],43

# Same assay, conditions: glycan array signal of DyLight 488-labeled PLL3 per printed glycan; Table S2, file PLU35_second_noheader.gpr
row,Molecule,Median
1,CC(=O)N[C@H]1[C@H](O[C@H]2[C@@H](O)[C@@H](CO)O[C@@H](O[C@@H]([C@H](O)[C@@H](O)C=O)[C@H](O)CO)[C@@H]2O)O[C@H](CO[C@]2(C(=O)O)C[C@H](O)[C@@H](NC(C)=O)[C@H]([C@H](O)[C@H](O)CO)O2)[C@@H](O)[C@@H]1O[C@@H]1O[C@H](CO)[C@H](O)[C@H](O)[C@H]1O [LSTb],348
2,Chitosan,1790
3,Mannan,480
4,CC(C)C[C@H](NC(=O)CCC(=O)O)C(=O)N1CCC[C@H]1C(=O)N[C@@H](Cc1c[nH]c2ccccc12)C(=O)N[C@@H](Cc1ccc(O)cc1)C(=O)N[C@@H](CCCNC(=N)N)C(=O)N[C@@H](C)C(=O)N1CCC[C@H]1C(=O)N[C@@H](CCCCN)C(N)=O [RhD] (Suc-LPWYRAPK-NH2),563
5,CC(=O)N[C@H]1[C@H](O[C@H]2[C@@H](O)[C@@H](CO)O[C@@H](O[C@H]3[C@H](O)[C@@H](O)C(O)O[C@@H]3CO)[C@@H]2O)O[C@H](CO)[C@@H](O)[C@@H]1O[C@@H]1O[C@H](CO)[C@H](O)[C@H](O)[C@H]1O (stereo partly shown) [LNT],349
6,OC[C@H]1O[C@@H](O[C@H]2[C@H](O)[C@@H](O)[C@H](O)O[C@@H]2CO)[C@H](O)[C@@H](O)[C@@H]1O [cello],672
7,OC[C@H]1O[C@H](O[C@H]2O[C@H](CO)[C@@H](O)[C@H](O)[C@H]2O)[C@H](O)[C@@H](O)[C@@H]1O [Treh],2512
8,NCC(=O)NCC(=O)NCC(=O)NCC(=O)NCC(=O)NCC(N)=O [Gly6],530
9,C[C@@H]1O[C@@H](O[C@H]2[C@H](O[C@H]3[C@H](O)[C@@H](O)[C@H](O)O[C@@H]3CO)O[C@H](CO)[C@H](O)[C@@H]2O)[C@@H](O)[C@H](O)[C@@H]1O [Htype6],474
10,CC(=O)N[C@H]1[C@H](O[C@H]2[C@@H](O)[C@@H](CO)O[C@@H](O[C@H]3[C@H](O)[C@@H](O)C(O)O[C@@H]3CO)[C@@H]2O)O[C@H](CO)[C@@H](O)[C@@H]1O[C@@H]1O[C@H](CO)[C@H](O)[C@H](O[C@]2(C(=O)O)C[C@H](O)[C@@H](NC(C)=O)[C@H]([C@H](O)[C@H](O)CO)O2)[C@H]1O (stereo partly shown) [LSTa],328
11,Laminarin,954
12,CCCCCn1ccc2ccccc21 [NpentylIndol],872
13,O=P(O)(O)OC[C@H]1O[C@H](O)[C@H](O)[C@@H](O)[C@@H]1O [G6P],615
14,Scleroglucan,1150
15,Laminaran,417
16,Curdlan,1158

# Target: T1, PLL3
# Assay: Isothermal titration calorimetry (ITC)
# Type: binding
# Details: KD, stoichiometry fixed to 3, 25 °C
# Description: ITC experiments were carried out using an AutoITC200 calorimeter (Malvern, UK) at 25 °C. The purified lectin was dialyzed against 20 mM Tris/HCl, 150 mM NaCl, pH 7.5 buffer before measurements. Individual ligands (L-fucose, αMeFuc, D-galactose, D-glucose, 3-O-methyl-D-glucose, and decavalent fucosylated glycoclusters 4a and 4b) were dissolved in the same buffer. PLL3 (100 μM) in the cell was titrated by the successive addition (2.0 μL) of the ligand in the syringe (20 mM for monosaccharides, 1 mM for multivalent fucosides). Experiments with monosaccharides were performed at stirring 750 rpm with a reference power of 10 μcal s^−1. Experiments with multivalent fucosides were performed at stirring 500 rpm with a reference power of 6 μcal s^−1. Titrations were carried out in three independent measurements for each ligand. Blank measurements were subtracted from collected data. For multivalent fucosides, two blank measurements were performed: titration of the buffer into the cell with PLL3 and titration of the buffer into the buffer. For monosaccharides, the additional blank measurement, the titration of a given ligand into the cell with buffer, was performed. The data were evaluated in software MicroCal PEAQ-ITC Analysis Software (Malvern, UK) by using the global fit method. Integrated heat effects were analyzed by nonlinear regression.
row,Molecule,Kd [µM]
1,O=C[C@H](O)[C@@H](O)[C@@H](O)[C@H](O)CO [D-galactose],2800 ± 140

# Same assay, conditions: KD, stoichiometry fixed to 4, 25 °C
row,Molecule,Kd [µM]
1,O=C[C@H](O)[C@@H](O)[C@@H](O)[C@H](O)CO [D-galactose],2700 ± 140

# Same assay, conditions: KD, stoichiometry fixed to 5, 25 °C
row,Molecule,Kd [µM]
1,O=C[C@H](O)[C@@H](O)[C@@H](O)[C@H](O)CO [D-galactose],2600 ± 130

# Same assay, conditions: KD, stoichiometry fixed to 6, 25 °C
row,Molecule,Kd [µM]
1,O=C[C@H](O)[C@@H](O)[C@@H](O)[C@H](O)CO [D-galactose],2500 ± 130

# Same assay, conditions: KD, stoichiometry fixed to 7, 25 °C
row,Molecule,Kd [µM]
1,O=C[C@H](O)[C@@H](O)[C@@H](O)[C@H](O)CO [D-galactose],2300 ± 130

# Reference: paper PMC6943638, “Lectin PLL3, a Novel Monomeric Member of the Seven-Bladed β-Propeller Lectin Family” (Molecules, 2019)
